Assay results published in patent US4730005A, “Leukotriene antagonist” (SmithKline Beckman Corporation, priority 1986, dated 1988).

Columns and labels:
[1] = molecular target: T1, leukotriene D4 (LTD4) induced contraction of guinea pig tracheal tissues (Cavia porcellus, UniProt Q2NNR5); experiment: in vitro inhibition of LTD4 induced contraction of guinea pig tracheal spiral strips; format: cell-based, guinea pig (adult male albino Hartley strain); conditions: guinea pig trachea, LTD4 agonist, 30 min pretreatment with test compound
T1 construct: Guinea pig (adult male albino Hartley strain) tracheal spiral strips; from tissue; host or cells: guinea pig trachea (spiral strips, adult male albino Hartley strain)
T1 sequence (Q2NNR5 1-340): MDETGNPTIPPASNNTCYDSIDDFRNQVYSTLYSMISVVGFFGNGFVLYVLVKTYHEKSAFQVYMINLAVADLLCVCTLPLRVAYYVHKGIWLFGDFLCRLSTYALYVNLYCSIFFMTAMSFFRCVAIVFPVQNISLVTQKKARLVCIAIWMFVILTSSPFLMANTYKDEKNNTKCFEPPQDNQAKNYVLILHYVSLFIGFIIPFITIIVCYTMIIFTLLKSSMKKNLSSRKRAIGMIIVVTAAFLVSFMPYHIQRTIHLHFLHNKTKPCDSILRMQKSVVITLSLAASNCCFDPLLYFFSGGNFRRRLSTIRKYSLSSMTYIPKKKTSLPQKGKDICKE
Protocol: The leukotriene antagonist activity of the compounds of this invention is measured by the ability of the compounds to inhibit the leukotriene induced contraction of guinea pig tracheal tissues in vitro and to inhibit leukotriene induced bronchoconstriction in guinea pigs in vivo. The following methodologies were employed: In vitro: Guinea pig (adult male albino Hartley strain) tracheal spiral strips of approximate dimensions 2 to 3 mm cross-sectional width and 3.5 cm length were bathed in modified Krebs buffer in jacketed 10 ml tissue bath and continously aerated with 95% 02 /5% CO2. The tissues were connected via silk suture to force displacement transducers for recording isometric tension. The tissues were equilibrated for 1 hr., pretreated for 15 minutes with meclofenamic acid (1 μM) to remove intrinsic prostaglandin responses, and then pretreated for an additional 30 minutes with either the test compound or vehicle control. A cumulative concentration-response curve for LTD4 on triplicate tissues was generated by successive increases in the bath concentration of the LTD4. In order to minimize intertissue variability, the contractions elicited by LTD4 were standardized as a percentage of the maximum response obtained to a reference agonist, carbachol (10 μM). Calculations: The averages of the triplicate LTD4 concentration-response curves both in the presence and absence of the test compound were plotted on log graph paper. The concentration of LTD4 needed to elicit 30% of the contraction elicited by carbachol was measured and defined as the EC30. The -log KB value for the test compound was determined by the following equations: [formula] In vivo: Anesthetized, spontaneously breathing guinea pigs (Adult male albino Hartley strain) were monitored on a Buxco pulmonary mechanics computer. Changes in airway resistance (RL) were calculated by the computer on a breath-by-breath basis at isovolumic points from signals measuring airflow and transpulmonary pressure using differential pressure transducers. Animals received either test compound or vehicle control intravenously via the jugular vein. LTD4 was then injected into the jugular vein. The bronchoconstriction produced was reflected by % changes in airways resistance relative to the baseline values obtained prior to injection of the test compound or vehicle control. Each guinea pig received either vehicle control or test compound.

[2] = test system: LTD4 induced bronchoconstriction in guinea pigs; experiment: in vivo inhibition of LTD4 induced bronchoconstriction (airway resistance RL) in guinea pigs; parameters: species or system guinea pig (adult male albino Hartley strain); conditions: intravenous
Protocol: The leukotriene antagonist activity of the compounds of this invention is measured by the ability of the compounds to inhibit the leukotriene induced contraction of guinea pig tracheal tissues in vitro and to inhibit leukotriene induced bronchoconstriction in guinea pigs in vivo. The following methodologies were employed: In vitro: Guinea pig (adult male albino Hartley strain) tracheal spiral strips of approximate dimensions 2 to 3 mm cross-sectional width and 3.5 cm length were bathed in modified Krebs buffer in jacketed 10 ml tissue bath and continously aerated with 95% 02 /5% CO2. The tissues were connected via silk suture to force displacement transducers for recording isometric tension. The tissues were equilibrated for 1 hr., pretreated for 15 minutes with meclofenamic acid (1 μM) to remove intrinsic prostaglandin responses, and then pretreated for an additional 30 minutes with either the test compound or vehicle control. A cumulative concentration-response curve for LTD4 on triplicate tissues was generated by successive increases in the bath concentration of the LTD4. In order to minimize intertissue variability, the contractions elicited by LTD4 were standardized as a percentage of the maximum response obtained to a reference agonist, carbachol (10 μM).
Calculations: The averages of the triplicate LTD4 concentration-response curves both in the presence and absence of the test compound were plotted on log graph paper. The concentration of LTD4 needed to elicit 30% of the contraction elicited by carbachol was measured and defined as the EC30. The -log KB value for the test compound was determined by the following equations: [formula] In vivo: Anesthetized, spontaneously breathing guinea pigs (Adult male albino Hartley strain) were monitored on a Buxco pulmonary mechanics computer. Changes in airway resistance (RL) were calculated by the computer on a breath-by-breath basis at isovolumic points from signals measuring airflow and transpulmonary pressure using differential pressure transducers. Animals received either test compound or vehicle control intravenously via the jugular vein. LTD4 was then injected into the jugular vein. The bronchoconstriction produced was reflected by % changes in airways resistance relative to the baseline values obtained prior to injection of the test compound or vehicle control. Each guinea pig received either vehicle control or test compound.
Calculations: The average of 3-6 animals per treatment was calculated using the % changes in the pulmonary parameters for control and test compound-treated animals. The average % inhibition by the test compound was calculated from the following equation: [formula]

[3] = test system: arachidonic acid-induced inflammation in mice; experiment: arachidonic acid-induced inflammation in mice; format: in vivo
[4] = test system: carrageenan peritonitis in mice; experiment: carrageenan peritonitis in mice; format: in vivo; conditions: oral administration at 100 mg/kg

Row | Kb [1] | Compound | other results
1 | 316 nM | CCCCCCCCCCc1ccccc1C(SCCC(=O)O)SCCC(=O)O [2 2 C10 H21 H, 4,6-dithia-5-(2-decylphenyl)nonanedioic acid] | % Inhibition of RL ([2]; 5 mg/kg): 60.7%
2 | 398 nM | CCCCCCCCCCCOc1ccccc1C(SCCC(=O)O)SCCC(=O)O [2 2 OC11 H23 H, 4,6-Dithia-5-(2-undecyloxyphenyl)nonanedioic acid] | % Inhibition of RL ([2]; 10 mg/kg): 89.4%
3 | 5010 nM | O=C(O)CCSC(SCCC(=O)O)c1ccccc1OCCCCCCc1ccccc1 [2 2 OC6 H12 phenyl H, 4,6-Dithia-5-[2-(6-phenylhexyloxy)phenyl]nonanedioic acid] | % Inhibition of RL ([2]; 10 mg/kg): 26.4%
4 | 316 nM | O=C(O)CCSC(SCCC(=O)O)c1ccccc1CCCCCCCCc1ccccc1 [2 2 C8 H16 phenyl H, 4,6-Dithia-5-[2-(8-phenyloctyl)phenyl]nonanedioic acid] | ED50 ([3]; Mus musculus, oral): 105 mg/kg; anti-inflammatory activity ([3]; oral administration): demonstrated anti-inflammatory activity; anti-inflammatory activity ([3]; subcutaneous administration): demonstrated anti-inflammatory activity; anti-inflammatory activity ([3]; topical administration): demonstrated anti-inflammatory activity; % Inhibition of RL ([2]; (1) 5 mg/kg): 100%; % Inhibition of RL ([2]; (2) 5 mg/kg): 95.3%; activity against carrageenan peritonitis [4]: demonstrated activity
5 | 631 nM | O=C(O)CCSC(SCCC(=O)O)c1ccccc1CCCCCCCCCCCC(F)(F)F [2 2 C11 H22 CF3 H, 4,6-Dithia-5-[2-(12,12,12-trifluorododecyl)phenyl]nonanedioic acid] | % Inhibition of RL ([2]; 5 mg/kg): 30.4%
6 | 631 nM | CCCCCCCCCCCCc1ccccc1C(SCCC(=O)O)SCCC(=O)O [2 2 C12 H25 H, 4,6-Dithia-5-(2-dodecylphenyl)nonanedioic acid] | % Inhibition of RL ([2]; 5 mg/kg): 96.5%
7 | 5010 nM | CCCCCCCCCCCOc1ccccc1C(C)(SCCC(=O)O)SCCC(=O)O [4,6-dithia-5-methyl-5-(2-undecyloxyphenyl)nonanedioic acid] | –
8 | 631 nM | O=C(O)CCSC(SCCC(=O)O)c1ccccc1CCCCCCCCc1ccc(C(F)(F)F)cc1 [2 2 C8 H16(4-CF3 phenyl) H, 4,6-Dithia-5-[2-(8-(4-trifluoromethylphenyl)octyl)phenyl]nonanedioic acid] | –
9 | 1260 nM | CCCCCCCCCCCCc1ccccc1C(SCC(=O)O)SCC(=O)O [1 1 C12 H25 H, 3,5-dithia-4-(2-dodecylphenyl)heptanedioic acid] | –
10 | 1000 nM | CCCCCCCCCCCOc1ccc(Br)cc1C(SCCC(=O)O)SCCC(=O)O [2 2 OC11 H23 Br, 4,6-dithia-5-(5-bromo-2-undecyloxyphenyl)nonanedioic acid] | –
11 | 398 nM | O=C(O)CCSC(SCCC(=O)O)c1ccccc1CCCCCCCSc1ccccc1 [2 2 C7 H4 S phenyl H, 4,6-Dithia-5-[2-(7-phenylthioheptyl)phenyl]nonanedioic acid] | –
12 | 1000 nM | CCCCCCCCCCCSc1ccccc1C(SCCC(=O)O)SCCC(=O)O [2 2 SC11 H23 H, 4,6-Dithia-5-(2-undecylthiophenyl)nonanedioic acid] | –
13 | 251 nM | O=C(O)CCSC(SCCC(=O)O)c1cc(C(F)(F)F)ccc1CCCCCCCCc1ccccc1 [2 2 C8 H16 phenyl CF3, 4,6-Dithia-5-[2-(8-phenyloctyl)-5-trifluoromethylphenyl]nonanedioic acid] | –
14 | 1000 nM | CCCCCCCCCCCOc1ccc(O)cc1C(SCCC(=O)O)SCCC(=O)O [2 2 OC11 H23 OH, 4,6-dithia-5-(5-hydroxy-2-undecyloxyphenyl)nonanedioic acid] | –
